Reference: patent US9371286B2, “Pharmaceutical composition with enhanced efficacy for inhibiting angiogenesis” (INDUSTRY-ACADEMIC COOPERATION FOUNDATION, YONSEI UNIVERSITY, priority 2011, dated 2016)

Legend:
[1] = system: HIF-1α; test: HIF-1α stability analysis (western blot, hypoxia); type: cell-based; conditions: HepG2 cells pretreated 30 minutes, then 1% O2 for 4 hours; for IC50: HIF-1α protein level by western blot, read-out: IC50 values of respective compounds on HIF-1 α; for hypoxia-induced HIF-1α protein accumulation: western blot
Method: HepG2 cells were pretreated with indicated concentrations of the synthetic derivatives for 30 minutes and then exposed to 1% O2 for 4 hours. HIF-1α and tubulin protein levels were analyzed using western blot analysis.

[2] = biological target: T1, UQCRB (Homo sapiens, UniProt P14927); test: Surface plasmon resonance (BIAcore) competitive binding analysis; conditions: for binding efficiency of UQCRB to biotinylated terpestacin (BT) after co-incubation: competitor 25 μM incubated with purified UQCRB protein 25 μM, BIAcore 2000; for direct binding to UQCRB: concluded from SPR competition with biotinylated terpestacin
T1 sequence (P14927 1-111): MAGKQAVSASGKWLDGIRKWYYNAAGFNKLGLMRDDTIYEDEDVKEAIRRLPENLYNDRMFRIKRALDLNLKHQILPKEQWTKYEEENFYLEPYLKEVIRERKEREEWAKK
Method: SPR analysis was performed to analyze the binding of the compounds to UQCRB. Control biotin and biotinylated terpestacin (BT) were sequentially immobilized onto the surface of a streptavidin-coated sensor chip and the apparent binding affinities were calculated by subtraction of resonance values of UQCRB binding to control biotin from those of UQCRB binding to BT. For competitive binding analysis, the compounds were each incubated with the UQCRB protein, and then the complexes were injected into flow cells of the sensor chip.
In order to further investigate the binding of A1893 and A1938 to UQCRB, the present inventors performed SPR (BIAcore) analysis. Control biotin and biotinylated terpestacin were sequentially immobilized onto the surface of a streptavidin-coated sensor chip. Competitive binding molecules (A1893 and A1938, 25 μM) were incubated with the purified UQCRB protein (25 μM) in the buffer (10 mM HEPES, 150 mM NaCl, 3 mM EDTA (pH 7.4)), and then UQCRB-competitive binding molecule complexes were injected onto the sensor chip at a flow rate of 30 μl/min. The surface of the sensor chip was regenerated by the injection of 5 μl of the regeneration buffer (50 mM NaOH). Molecular interaction analysis was performed using the BIAcore 2000 system (BIAcore AB), and the apparent binding affinities were calculated by the subtraction of resonance values of UQCRB binding to control biotin from those of UQCRB binding to biotinylated terpestacin. For competitive binding analysis, terpestacin and the compounds of the present invention were each incubated with the UQCRB protein, and then the complexes were injected into flow cells of the sensor chip.

[3] = system: HUVECs; test: Invasiveness analysis (Transwell, VEGF-induced); type: cell-based, human; conditions: VEGF 30 ng/ml, 2.5 μM and 5 μM, 18 hours
Method: (§1) Serum-starved HUVECs were treated with VEGF (30 ng/mL) with or without A1893 or A1938 and then the in vitro angiogenesis analysis was performed.
Serum-starved human umbilical vein endothelial cells (HUVECs) were treated with VEGF with or without A1893 or A1938, and then the in vitro angiogenesis analysis was performed. The invasiveness of HUVECs was investigated using the Transwell chamber system with 8.0-μm pore-sized polycarbonate filter (Corning Costar). First, a lower portion of the filter was coated with 10 μl gelatin (10 mg/ml) for 1 hour, and an upper portion of the filter was coated with 10 μl Matrigel (3 mg/ml) for 2 hours. Then, 600 μl of the EBM-2 medium was put into the Transwell, and then, VEGF (30 ng/ml) and the compound of the present invention DPCN (2.5 μM and 5 μM) were added thereto. The coated filter was placed on the Transwell, and HUVECs (1×10^5 cells/well) were inoculated on the upper portion of the filter, following by incubation for 18 hours. After that, the cells were fixed with 70% methanol, and then stained with hematoxylin/eosin. Then, the total number of invaded cells was measured using an optical microscope at 100× magnification.

[4] = system: HUVECs; test: Tube formation analysis on Matrigel; type: cell-based, human; conditions: VEGF 30 ng/ml, 2.5 μM and 5 μM, 8 hours
Method: as §1
Tube formation analysis was performed using HUVECs growing on Matrigel (Collaborative Biomedical Products). The 48-well plate was coated with 150 μl Matrigel, followed by polymerization at 37 for 2 hours. Then, human umbilical vein endothelial cells (HUVECs, 1×10^5 cells/well) were inoculated on Matrigel, and then VEGF (30 ng/ml) and the compound of the present invention DPCN (2.5 μM and 5 μM) were added thereto. The morphological change of cells was observed while the cells were incubated at room temperature for 8 hours. Tube formation was quantified by measuring the number of connected cells in randomly selected fields and dividing the measured number by the total number of cells in the same field.

[5] = system: HepG2 cells; test: Mitochondrial ROS generation analysis (DCF fluorescence); type: cell-based; conditions: HepG2 cells pretreated 30 minutes, then 1% O2 for 10 minutes
Method: Intracellular ROS levels were determined by the DCF fluorescence. HepG2 cells were pretreated with the compounds for 30 minutes, and then exposed to 1% O2 for 10 minutes. A1893 and A1938 suppressed hypoxia-induced mitochondrial ROS generation, which confirmed that A1893 and A1938 modulate the O2 sensing function of UQCRB.
The increase in ROS generation due to complex III during hypoxia triggers HIF-1α stabilization, and consequently mediates the expression of its target genes such as VEGF. UQCRB, which is an important component in mitochondrial complex III, acts as an O2 sensor and mediates hypoxia-induced tumor angiogenesis. In order to determine whether anti-angiogenic activity of A1893 and A1938 is associated with the modulation of the O2 sensing function of UQCRB, the present inventors investigated the mitochondrial ROS-mediated hypoxic signal transmission procedure of A1893 and A1938. HepG2 liver cancer cells were pretreated with A1893 and A1938 for 30 minutes, and then exposed to 1% O2 for 10 minutes. Intracellular ROS levels were determined by the DCF fluorescence. A1893 and A1938 suppressed the hypoxia-induced mitochondrial ROS generation in HepG2 cells in a dose-dependent manner (FIG. 5).

[6] = system: HUVECs; test: Viability of endothelial cells; type: cell-based, human
[7] = stated with the invasion analysis
[8] = stated with the tube formation analysis

Structure (SMILES)	IC50 [1]	other results
CCc1ccc(S(=O)(=O)Nc2cccc3ccc(O)cc23)cc1 [A1891, 4-ethyl-N-(7-hydroxy-naphthalen-1-yl)-benzene-sulfonamide]	10 µM	
CC(C)(C)c1ccc(S(=O)(=O)Nc2ccc(O)cc2)cc1 [A1893, 4-tert-butyl-N-(4-hydroxy-phenyl)-benzene-sulfonamide]	5 µM	hypoxia-induced HIF-1α protein accumulation [1]: greatly reduced; binding efficiency of UQCRB to biotinylated terpestacin (BT) after co-incubation [2]: significantly decreased; direct binding to UQCRB [2]: directly bind to UQCRB; VEGF-induced invasion of HUVECs [3]: inhibited VEGF-induced invasion; tube formation of HUVECs [4]: inhibited the tube formation; hypoxia-induced mitochondrial ROS generation [5]: suppressed; viability of endothelial cells [6, 7]: without affecting viability; viability of endothelial cells [6, 8]: without affecting viability
O=S(=O)(Nc1ccc(O)cc1)c1ccc(-c2ccccc2)cc1 [A1938, biphenyl-4-sulfonic acid (4-hydroxy-phenyl)-amide]	5 µM	hypoxia-induced HIF-1α protein accumulation [1]: greatly reduced; binding efficiency of UQCRB to biotinylated terpestacin (BT) after co-incubation [2]: significantly decreased; direct binding to UQCRB [2]: directly bind to UQCRB; VEGF-induced invasion of HUVECs [3]: inhibited VEGF-induced invasion; tube formation of HUVECs [4]: inhibited the tube formation; hypoxia-induced mitochondrial ROS generation [5]: suppressed; viability of endothelial cells [6, 7]: without affecting viability; viability of endothelial cells [6, 8]: without affecting viability
CC(C)(C)c1ccc(S(=O)(=O)Nc2ccc(O)cc2Cl)cc1 [A2000, 4-tert-butyl-N-(2-chloro-4-hydroxy-phenyl)-benzene-sulfonamide]	10 µM	
O=S(=O)(Nc1ccc(O)cc1Cl)c1ccc(-c2ccccc2)cc1 [A2001, biphenyl-4-sulfonic acid (2-chloro-4-hydroxy-phenyl)-amide]	5 µM	
CC(C)(C)c1ccc(S(=O)(=O)Nc2ccc(O)c(Cl)c2)cc1 [A2003, 4-tert-butyl-N-(3-chloro-4-hydroxy-phenyl)-benznene-sulfonamide]	10 µM	
CC(C)(C)c1ccc(S(=O)(=O)Nc2cc(Cl)c(O)c(Cl)c2)cc1 [A2006, 4-tert-butyl-N-(3,5-dichloro-4-hydroxy-phenyl)-benzene-sulfonamide]	10 µM	
CC(C)(C)c1ccc(S(=O)(=O)Nc2ccc(O)cc2F)cc1 [A2007, 4-tert-butyl-N-(2-fluoro-4-hydroxy-phenyl)-benzene-sulfonamide]	10 µM	
O=S(=O)(Nc1ccc(O)cc1F)c1ccc(-c2ccccc2)cc1 [A2008, biphenyl-4-sulfonic acid (2-fluoro-4-hydroxy-phenyl)-amide]	5 µM	
CC(C)(C)c1ccc(S(=O)(=O)Nc2ccc(O)c(F)c2)cc1 [A2010, 4-tert-butyl-N-(3-fluoro-4-hydroxy-phenyl)-benzene-sulfonamide]	10 µM	
O=S(=O)(Nc1cccc(O)c1)c1ccc(-c2ccccc2)cc1 [A2033, biphenyl-4-sulfonic acid (3-hydroxy-phenyl)-amide]	5 µM	
CC(C)(C)c1ccc(S(=O)(=O)Nc2ccc(O)cc2[N+](=O)[O-])cc1 [A2037, 4-tert-butyl-N-(2-nitro-4-hydroxy-phenyl)-benzene-sulfonamide]	10 µM	
O=[N+]([O-])c1cc(O)ccc1NS(=O)(=O)c1ccc(-c2ccccc2)cc1 [A2038, biphenyl-4-sulfonic acid (2-nitro-4-hydroxy-phenyl)-benzene-sulfonamide]	5 µM	
Cc1cc(NS(=O)(=O)c2ccc(-c3ccccc3)cc2)ccc1O [A2040, biphenyl-4-sulfonic acid (4-hydroxy-3-methyl-phenyl)-amide]	5 µM	
Cc1cc(NS(=O)(=O)c2ccc(-c3ccccc3)cc2)ccc1O [A2041, biphenyl-4-sulfonic acid (4-hydrox-3-methyl-phenyl)-amide]	10 µM	
O=S(=O)(Nc1cc(Cl)c(O)c(Cl)c1)c1ccc(-c2ccccc2)cc1 [A2043, biphenyl-4-sulfonic acid (3,5-dichloro-4-hydroxy-phenyl)-amide]	10 µM	
O=S(=O)(Nc1cc(Cl)c(O)c(Cl)c1)c1ccc2ccccc2c1 [A2044, naphthalene-3-sulfonic acid (3,5-dichloro-4-hydroxy-phenyl)-amide]	10 µM	
O=S(=O)(NCCc1ccc(O)cc1)c1ccc(-c2ccccc2)cc1 [A2060, biphenyl-4-sulfonic acid [2-(4-hydroxy-phenyl)-ethyl]-amide]	10 µM	
O=S(=O)(NC1CCC(CCO)CC1)c1ccc2ccccc2c1 (stereo not drawn) [A2069, naphthalene-2-sulfonic acid [4-(2-hydroxy-ethyl)-cyclohenxyl]-amide]	10 µM	
C/C1=C\C[C@]2(C)C(=O)C(O)=C([C@H](C)CO)[C@H]2C/C=C(\C)[C@@H](O)CC/C(C)=C/CC1 [terpestacin, reference compound]		binding efficiency of UQCRB to biotinylated terpestacin (BT) after co-incubation [2]: significantly decreased
